Laboratory results from article PMC8469912, “Naproxen Based 1,3,4-Oxadiazole Derivatives as EGFR Inhibitors: Design, Synthesis, Anticancer, and Computational Studies” (Pharmaceuticals, 2021).
In brackets after ≈: the same amount, converted by molar mass.

Columns and labels:
MCF-7 (breast cells) = experiment: Antiproliferative activity, sulphorhodamine B (SRB) assay, MCF-7; assay type: cell-based; conditions: Homo sapiens, MCF7, cytotoxicity, MCF-7 breast cancer cells, mean of three independent experiments
Experimental: (§1) The cytotoxicity of the new isolated compounds was evaluated against MCF-7 (breast cells), HepG2 (Hepatocellular) and HCT-116 (colorectal cells) human cancer cells using sulphorhodamine B assay (SRB). This assay was performed as previously published.
(§2) The antiproliferative activity of the target compounds was assessed on three cancer lines, MCF-7, HepG2 and HCT-116 cells using sulforhodamine assay. […].

[1] = test system: HCT-116 (colorectal cells); experiment: Antiproliferative activity, sulphorhodamine B (SRB) assay, HCT-116; assay type: cell-based; conditions: Homo sapiens, HCT-116, cytotoxicity, HCT-116 colorectal cancer cells, mean of three independent experiments
Experimental: as §1, §2

HepG2 (Hepatocellular) = experiment: Antiproliferative activity, sulphorhodamine B (SRB) assay, HepG2; assay type: cell-based; conditions: Homo sapiens, HepG2, cytotoxicity, HepG2 liver cancer cells, mean of three independent experiments
Experimental: as §1, §2

EGFR = EGFR (Homo sapiens, UniProt P00533); experiment: In vitro EGFR kinase inhibitory activity (ELISA, EGFR Erb B1 kinase kit)
Sequence of EGFR (P00533 25-1210): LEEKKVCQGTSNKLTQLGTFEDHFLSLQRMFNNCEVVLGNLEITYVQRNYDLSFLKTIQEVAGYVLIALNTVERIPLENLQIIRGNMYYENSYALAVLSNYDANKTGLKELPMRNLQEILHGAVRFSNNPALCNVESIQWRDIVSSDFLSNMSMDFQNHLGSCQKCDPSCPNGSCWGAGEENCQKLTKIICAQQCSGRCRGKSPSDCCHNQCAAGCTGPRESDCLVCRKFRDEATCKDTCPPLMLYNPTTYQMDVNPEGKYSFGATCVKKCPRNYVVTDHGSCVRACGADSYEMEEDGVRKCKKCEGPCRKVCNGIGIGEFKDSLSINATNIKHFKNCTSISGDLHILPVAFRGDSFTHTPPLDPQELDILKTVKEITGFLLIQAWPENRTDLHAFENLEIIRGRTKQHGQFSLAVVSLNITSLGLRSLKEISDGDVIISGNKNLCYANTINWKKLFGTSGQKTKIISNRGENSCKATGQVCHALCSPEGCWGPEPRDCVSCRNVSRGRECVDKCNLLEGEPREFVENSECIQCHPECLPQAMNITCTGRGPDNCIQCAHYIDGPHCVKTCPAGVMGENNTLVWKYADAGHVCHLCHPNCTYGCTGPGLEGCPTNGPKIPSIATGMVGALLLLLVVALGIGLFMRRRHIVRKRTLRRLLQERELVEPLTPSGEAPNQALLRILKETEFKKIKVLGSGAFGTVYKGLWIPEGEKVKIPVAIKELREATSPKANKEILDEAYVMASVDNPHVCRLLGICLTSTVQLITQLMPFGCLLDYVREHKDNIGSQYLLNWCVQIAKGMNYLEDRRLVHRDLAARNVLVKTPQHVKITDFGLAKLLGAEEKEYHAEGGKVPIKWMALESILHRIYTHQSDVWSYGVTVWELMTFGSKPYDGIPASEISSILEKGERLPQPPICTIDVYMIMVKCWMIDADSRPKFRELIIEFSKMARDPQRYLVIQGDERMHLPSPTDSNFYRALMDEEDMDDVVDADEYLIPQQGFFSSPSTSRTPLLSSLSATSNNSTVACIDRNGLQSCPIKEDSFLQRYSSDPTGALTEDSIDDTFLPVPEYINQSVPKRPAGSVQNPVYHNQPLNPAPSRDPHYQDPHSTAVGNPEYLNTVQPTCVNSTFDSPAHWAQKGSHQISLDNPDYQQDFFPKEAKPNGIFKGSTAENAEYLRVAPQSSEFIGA
Experimental: Briefly, solutions of kinase/peptide and ATP were prepared prior to use. […] Then, 5 mL of this prepared solution was added into 96 well plates, incubated for 1 h and determined by an ELISA Reader (Perkin Elmer, Waltham, MA, USA). Each experiment was repeated three times and IC50 represented as mean ± S.E, was calculated using Graph Pad Prism 5.

MCF-7 = experiment: Apoptosis, acridine orange/ethidium bromide staining, MCF-7; assay type: cell-based, human; conditions: MCF-7, AO/EtBr dual staining, 48 h, fluorescent microscope
Experimental: (§3) AO and EtBr are DNA binding dyes. They have been used for detection of the morphological features of apoptotic and necrotic cells. The stainings were performed according the protocol as previously published.
(§4) The MCF-7, HepG2 and HCT 116 cancer cells were categorized by AO/EtBr dual staining. The different colors of the cells indicate different stages of apoptosis. […] and examined under a fluorescent microscope. Regularly stained green with normal, round, intact nuclei and cytoplasm indicates the viability of the normal cell (control).

HCT 116 = experiment: Apoptosis, acridine orange/ethidium bromide staining, HCT 116; assay type: cell-based, human; conditions: HCT 116, AO/EtBr dual staining, 48 h, fluorescent microscope
Experimental: as §3, §4

HepG2 = experiment: Apoptosis, acridine orange/ethidium bromide staining, HepG2; assay type: cell-based, human; conditions: HepG2, AO/EtBr dual staining, 48 h, fluorescent microscope
Experimental: as §3, §4

Compound | melting point [°C] | IC50 (EGFR) [µM] | IC50 (MCF-7 (breast cells)) [µg/mL] | IC50 [1] [µg/mL] | IC50 (HepG2 (Hepatocellular)) [µg/mL] | further results
COc1ccc2cc([C@H](C)c3nnc(SCc4cn(-c5ccc(F)cc5)nn4)o3)ccc2c1 [Compound 8] | 99 to 100 | 7.31 ± 0.25 | 7.38 (≈ 16 µM) | 15.7 (≈ 33.9 µM) | 25.5 (≈ 55.2 µM) | –
COc1ccc2cc([C@H](C)c3nnc(SCc4cn(-c5ccc(F)cc5F)nn4)o3)ccc2c1 [Compound 9] | – | 0.71 ± 0.17 | 6.47 (≈ 13.5 µM) | 7.46 (≈ 15.6 µM) | 4.52 (≈ 9.43 µM) | Early apoptosis (cell death) (MCF-7): significant rate of cell death in early apoptosis; Necrosis (MCF-7): does not cause death of the necrosis pathway; Early apoptosis (cell death) (HCT 116): significant rate of cell death in early apoptosis; Necrosis (HCT 116): does not cause death of the necrosis pathway; Early apoptosis (cell death) (HepG2): significant rate of cell death in early apoptosis; Necrosis (HepG2): does not cause death of the necrosis pathway
COc1ccc2cc([C@H](C)c3nnc(SCc4cn(-c5ccccc5Cl)nn4)o3)ccc2c1 [Compound 10] | – | 0.67 ± 0.33 | 5.05 (≈ 10.6 µM) | 33.9 (≈ 70.9 µM) | 3.53 (≈ 7.39 µM) | Early apoptosis (cell death) (MCF-7): significant rate of cell death in early apoptosis; Early apoptosis (cell death) (HCT 116): significant rate of cell death in early apoptosis; Early apoptosis (cell death) (HepG2): significant rate of cell death in early apoptosis
COc1ccc2cc([C@H](C)c3nnc(SCc4cn(-c5cccc(Cl)c5)nn4)o3)ccc2c1 [Compound 11] | – | – | 60.5 (≈ 126 µM) | 83.9 (≈ 176 µM) | 37.9 (≈ 79.3 µM) | –
COc1ccc2cc([C@H](C)c3nnc(SCc4cn(-c5cccc(Br)c5)nn4)o3)ccc2c1 [Compound 13] | – | 3.42 ± 0.11 | 15.8 (≈ 30.3 µM) | 29.3 (≈ 56 µM) | 7.07 (≈ 13.5 µM) | –
COc1ccc2cc([C@H](C)c3nnc(SCc4cn(-c5ccc(Br)cc5)nn4)o3)ccc2c1 [Compound 14] | 160 to 161 | 5.12 ± 0.21 | 7.5 (≈ 14.4 µM) | 86.1 (≈ 165 µM) | 7.63 (≈ 14.6 µM) | –
COc1ccc2cc([C@H](C)c3nnc(SCc4cn(-c5ccccc5O)nn4)o3)ccc2c1 [Compound 15, 2-(4-((5-((S)-1-(2-methoxynaphthalen-6-yl)ethyl)-1,3,4-oxadiazol-2-ylthio)methyl)-1H-1,2,3-triazol-1-yl)phenol] | – | 0.41 ± 0.12 | 2.13 (≈ 4.64 µM) | 29.1 (≈ 63.3 µM) | 1.63 (≈ 3.55 µM) | Early apoptosis (cell death) (HCT 116): percentage of cell death decreased; Late apoptosis (HCT 116): induces more late apoptosis; Necrosis (HCT 116): high percentage of necrosis; Early apoptosis (cell death) (HepG2): percentage of cell death decreased
COc1ccc2cc([C@H](C)c3nnc(SCc4cn(-c5cccc(C(=O)O)c5)nn4)o3)ccc2c1 [Compound 16] | – | 2.27 ± 0.17 | 10.4 (≈ 21.4 µM) | 8.36 (≈ 17.1 µM) | 10.7 (≈ 21.9 µM) | Late apoptosis (MCF-7): observed at a high rate; Necrosis (MCF-7): high percentage of necrosis; Late apoptosis (HepG2): observed at a high rate; Necrosis (HepG2): high percentage of necrosis
COc1ccc2cc([C@H](C)c3nnc(SCC(=O)N4CCOCC4)o3)ccc2c1 [Compound 26] | – | – | 22.3 (≈ 53.9 µM) | 11.1 (≈ 26.8 µM) | 23.6 (≈ 57.2 µM) | –
COc1cccc2c1C(=O)c1c(O)c3c(c(O)c1C2=O)C[C@@](O)(C(=O)CO)C[C@@H]3O[C@H]1C[C@H](N)[C@H](O)[C@H](C)O1 [Doxorubicin, reference compound] | – | – | 1.41 (≈ 2.59 µM) | 2.11 (≈ 3.88 µM) | 1.62 (≈ 2.98 µM) | –

The next lines start with results.

melting point [°C] | IC50 (EGFR) [µM] | Compound | IC50 (MCF-7 (breast cells)) [µg/mL] | IC50 [1] [µg/mL] | IC50 (HepG2 (Hepatocellular)) [µg/mL] | further results
102 to 103 | – | COc1ccc2cc([C@H](C)c3nnc(SCc4cn(-c5ccc(Cl)cc5Cl)nn4)o3)ccc2c1 [Compound 12] | 45.7 (≈ 89.2 µM) | 28.1 (≈ 54.9 µM) | 26.4 (≈ 51.5 µM) | –
220 to 221 | – | COc1ccc2cc([C@H](C)c3nnc(SCC(=O)Nc4ccc(F)cc4)o3)ccc2c1 [Compound 19] | – | – | – | –
102 to 103 | – | COc1ccc2cc([C@H](C)c3nnc(SCC(=O)Nc4ccc(F)cc4F)o3)ccc2c1 [Compound 20] | 32.6 (≈ 71.7 µM) | 73.4 (≈ 161 µM) | 31.3 (≈ 68.8 µM) | –
– | 0.82 ± 0.28 | COc1ccc2cc([C@H](C)c3nnc(SCC(=O)Nc4cccc(Cl)c4)o3)ccc2c1 [Compound 21] | 25.9 (≈ 57.1 µM) | 1.24 (≈ 2.73 µM) | 7 (≈ 15.4 µM) | –
129 to 130 | – | COc1ccc2cc([C@H](C)c3nnc(SCC(=O)Nc4cccc(Br)c4)o3)ccc2c1 [Compound 22] | > 100 | – | > 100 | –
148 to 149 | – | COc1ccc2cc([C@H](C)c3nnc(SCC(=O)Nc4ccc(Br)cc4)o3)ccc2c1 [Compound 23] | 25.6 (≈ 51.3 µM) | 35.1 (≈ 70.5 µM) | 15 (≈ 30 µM) | –
– | 1.08 ± 0.31 | COc1ccc2cc([C@H](C)c3nnc(SCC(=O)Nc4ccccc4C)o3)ccc2c1 [Compound 24] | 8.15 (≈ 18.8 µM) | 29.3 (≈ 67.7 µM) | 4.88 (≈ 11.3 µM) | –
130 to 131 | – | COc1ccc2cc([C@H](C)c3nnc(SCC(=O)Nc4ccccc4C(=O)O)o3)ccc2c1 [Compound 25] | 29.8 (≈ 64.3 µM) | 29.2 (≈ 63 µM) | 28 (≈ 60.5 µM) | –
